A short description of the assay: Inhibition of aggregation of human gel-filtered platelets measured by light transmittance method at 37 degrees C.
A word on the IC50: it is the point on the concentration scale where inhibition reaches its midpoint. Low values mean greater potency in that assay, high ones weaker potency in that assay. Compound `C#C[C@H](CC(=O)O)NC(=O)CN1CCC[C@@H](CCc2ccnc(N)c2)C1=O` [(S)-3-(2-{(R)-3-[2-(2-Amino-pyridin-4-yl)-ethyl]-2-oxo-piperidin-1-yl}-acetylamino)-pent-4-ynoic acid] had a half-maximal inhibitory concentration (IC50) of 28 nM. Regarding `O=C(NC[C@H](NS(=O)(=O)c1ccccc1)C(=O)O)c1ccc(OCCC2CCNCC2)cc1` [2-Benzenesulfonylamino-3-[4-(2-piperidin-4-yl-ethoxy)-benzoylamino]-propionic acid], the half-inhibitory concentration (IC50) was 13 nM. In the case of `O=C(O)C[C@H](NC(=O)C[C@H]1CCCN(CCC2CCNCC2)C1=O)c1cccnc1` [(S)-3-{2-[(R)-2-Oxo-1-(2-piperidin-4-yl-ethyl)-piperidin-3-yl]-acetylamino}-3-pyridin-3-yl-propionic acid], 9 nM corresponded to half-maximal inhibition (IC50).

In turn, `C#C[C@H](CC(=O)O)NC(=O)CN1CCC[C@@H](CCC2CCNCC2)C1=O` [(S)-3-{2-[(R)-2-Oxo-3-(2-piperidin-4-yl-ethyl)-piperidin-1-yl]-acetylamino}-pent-4-ynoic acid] came in with an IC50 of 13 nM. The IC50 values of the last two compounds are within 1.5-fold of each other. Consider `O=C(O)C[C@@H](CO)NC(=O)c1ccc2c(c1)C(=O)N(CCC1CCNCC1)C2` [(S)-4-Hydroxy-3-{[3-oxo-2-(2-piperidin-4-yl-ethyl)-2,3-dihydro-1H-isoindole-5-carbonyl]-amino}-butyric acid], for which half-maximal inhibition (IC50) was put at 8 nM. This IC50 is about 1.6-fold lower than that of the compound before. Compound `O=C(O)C[C@H](NC(=O)CN1CCC[C@@H](CCC2CCNCC2)C1=O)c1cccnc1` [(S)-3-{2-[(R)-2-Oxo-3-(2-piperidin-4-yl-ethyl)-piperidin-1-yl]-acetylamino}-3-pyridin-3-yl-propionic acid] registered a half-maximal inhibitory concentration (IC50) of 10 nM. The figure for `O=C(NC[C@H](NS(=O)(=O)c1ccccc1)C(=O)O)c1ccc2c(c1)C(=O)N(CCC1CCNCC1)C2` [(S)-2-Benzenesulfonylamino-3-{[3-oxo-2-(2-piperidin-4-yl-ethyl)-2,3-dihydro-1H-isoindole-5-carbonyl]-amino}-propionic acid] is 8 nM; for `C#C[C@H](CC(=O)O)NC(=O)CN1CCc2ccc(N3CCNCC3)cc2C1=O` [L-767679] it is 15 nM. With `O=C(NC[C@H](NS(=O)(=O)c1ccccc1)C(=O)O)c1cc2cc(OCCC3CCNCC3)ccc2[nH]1` [(S)-2-Benzenesulfonylamino-3-{[5-(2-piperidin-4-yl-ethoxy)-1H-indole-2-carbonyl]-amino}-propionic acid] the figure was 10 nM; with `Cc1ccc(S(=O)(=O)N[C@@H](CNC(=O)c2cc3n(n2)CCCN(CCC2CCNCC2)C3=O)C(=O)O)cc1` [(S)-3-{[4-Oxo-5-(2-piperidin-4-yl-ethyl)-5,6,7,8-tetrahydro-4H-1,5,8a-triaza-azulene-2-carbonyl]-amino}-2-(toluene-4-sulfonylamino)-propionic acid], 8 nM; with `O=C(O)CCNC(=O)CN1CCc2ccc(N3CCNCC3)cc2C1=O` [3-[2-(1-Oxo-7-piperazin-1-yl-3,4-dihydro-1H-isoquinolin-2-yl)-acetylamino]-propionic acid], 140 nM. In turn, `O=C(O)C[C@H](NC(=O)CN1CCc2ccc(N3CCNCC3)cc2C1=O)c1cccnc1` [(S)-3-[2-(1-Oxo-7-piperazin-1-yl-3,4-dihydro-1H-isoquinolin-2-yl)-acetylamino]-3-pyridin-3-yl-propionic acid] gave an IC50 of 13 nM.

In the case of `C#CC(CC(=O)O)NC(=O)CN(C(=O)c1cccc(C2CCNCC2)c1)C1CC1` (stereo not drawn) [3-{2-[Cyclopropyl-(3-piperidin-4-yl-benzoyl)-amino]-acetylamino}-pent-4-ynoic acid], the IC50 was 15 nM. This IC50 and that of the compound before are within 1.5-fold of each other.

Compound `C#CC(CCCN1CCC[C@@H](CCC2CCNCC2)C1=O)CC(=O)O` (stereo partly drawn) [3-Ethynyl-6-[(R)-2-oxo-3-(2-piperidin-4-yl-ethyl)-piperidin-1-yl]-hexanoic acid] displayed a 50% inhibitory concentration (IC50) of 51 nM. In turn, `C#C[C@H](CC(=O)O)NC(=O)C[C@H]1CCCN(CCc2ccnc(N)c2)C1=O` [(S)-3-(2-{(R)-1-[2-(2-Amino-pyridin-4-yl)-ethyl]-2-oxo-piperidin-3-yl}-acetylamino)-pent-4-ynoic acid] registered a half-inhibitory concentration (IC50) of 19 nM. This IC50 lies about 2.7-fold lower than the previous one. In the case of `O=C(O)C[C@@H](CO)NC(=O)CN1CCc2ccc(N3CCNCC3)cc2C1=O` [(S)-4-Hydroxy-3-[2-(1-oxo-7-piperazin-1-yl-3,4-dihydro-1H-isoquinolin-2-yl)-acetylamino]-butyric acid], 81 nM corresponded to half-maximal inhibition (IC50). With `C[C@@H](/C=C/CN1CCC[C@@H](CCC2CCNCC2)C1=O)CC(=O)O` [(E)-(R)-3-Methyl-6-[(R)-2-oxo-3-(2-piperidin-4-yl-ethyl)-piperidin-1-yl]-hex-4-enoic acid] the figure was 57 nM.

Regarding `C#C[C@H](CC(=O)O)NC(=O)c1ccc2c(c1)C(=O)N(CCc1ccnc(N)c1)C2` [(S)-3-({2-[2-(2-Amino-pyridin-4-yl)-ethyl]-3-oxo-2,3-dihydro-1H-isoindole-5-carbonyl}-amino)-pent-4-ynoic acid], the IC50 is 27 nM. The compound `C#C[C@H](CC(=O)O)NC(=O)C[C@H]1CCCN(CCC2CCNCC2)C1=O` [(S)-3-{2-[(R)-2-Oxo-1-(2-piperidin-4-yl-ethyl)-piperidin-3-yl]-acetylamino}-pent-4-ynoic acid] showed an IC50 of 15 nM.

`O=C(CN1CCc2ccc(N3CCNCC3)cc2C1=O)NC[C@H](NS(=O)(=O)c1ccccc1)C(=O)O` [(S)-2-Benzenesulfonylamino-3-[2-(1-oxo-7-piperazin-1-yl-3,4-dihydro-1H-isoquinolin-2-yl)-acetylamino]-propionic acid]: the 50% inhibitory concentration (IC50) stood at 35 nM. Compared with the last compound, the IC50 is about 2.3-fold higher. Turning to `CC(CC(=O)O)NC(=O)c1ccc2c(c1)C(=O)N(CCC1CCNCC1)C2` (stereo not drawn) [3-{[3-Oxo-2-(2-piperidin-4-yl-ethyl)-2,3-dihydro-1H-isoindole-5-carbonyl]-amino}-butyric acid], the IC50 was 65 nM.

For `O=C(CN1CCC[C@@H](CCC2CCNCC2)C1=O)NC[C@H](NS(=O)(=O)c1ccccc1)C(=O)O` [(S)-2-Benzenesulfonylamino-3-{2-[(R)-2-oxo-3-(2-piperidin-4-yl-ethyl)-piperidin-1-yl]-acetylamino}-propionic acid], the IC50 is 11 nM. In the case of `C[C@H](CC(=O)O)NC(=O)CN1CCC[C@@H](CCC2CCNCC2)C1=O` [3-{2-[2-Oxo-3-(2-piperidin-4-yl-ethyl)-piperidin-1-yl]-acetylamino}-butyric acid (L-734217)], the 50% inhibitory concentration (IC50) is 32 nM.

The values are drawn from BindingDB's records for doi:10.1016/s0960-894x(00)00385-1 (Merck Research Laboratories, 2001).
